Source: the supplement of paper PMC10307832

How the values were obtained:
Test in all cases: relative viability (nuclei count vs DMSO), 5 days (fraction); higher = more cells survive
Crizotinib + Foretinib = compound: C[C@@H](Oc1cc(-c2cnn(C3CCNCC3)c2)cnc1N)c1c(Cl)ccc(F)c1Cl [Crizotinib] + COc1cc2c(Oc3ccc(NC(=O)C4(C(=O)Nc5ccc(F)cc5)CC4)cc3F)ccnc2cc1OCCCN1CCOCC1 [Foretinib] (partner 0.25 µM)
How it was run: (§1)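 Lung cancer cell lines, seeded in 1536-well plates, were treated the following day by pin tool with a single drug or with five library-drug doses (not always all listed) in √10 steps on top of a fixed anchor-drug dose. Cells were fixed and nuclei stained in one step after 5 days, and nuclei were counted. Relative viability is the nuclei count for treated wells divided by that for vehicle wells, reported as medians of duplicate plates.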

Crizotinib + Phenformin = compound: C[C@@H](Oc1cc(-c2cnn(C3CCNCC3)c2)cnc1N)c1c(Cl)ccc(F)c1Cl [Crizotinib] + N=C(N)NC(=N)NCCc1ccccc1 [Phenformin] (partner 250 µM)
How it was run: as §1

Crizotinib + Decitabine = compound: C[C@@H](Oc1cc(-c2cnn(C3CCNCC3)c2)cnc1N)c1c(Cl)ccc(F)c1Cl [Crizotinib] + Nc1ncn([C@H]2C[C@H](O)[C@@H](CO)O2)c(=O)n1 [Decitabine] (partner 2 µM)
How it was run: as §1

Crizotinib + Olaparib = compound: C[C@@H](Oc1cc(-c2cnn(C3CCNCC3)c2)cnc1N)c1c(Cl)ccc(F)c1Cl [Crizotinib] + O=C(c1cc(Cc2n[nH]c(=O)c3ccccc23)ccc1F)N1CCN(C(=O)C2CC2)CC1 [Olaparib] (partner 8 µM)
How it was run: as §1

Row | Cell Line | relative viability (Crizotinib + Foretinib; first compound 0.01 µM) | relative viability (Crizotinib + Foretinib; first compound 0.03162 µM) | relative viability (Crizotinib + Foretinib; first compound 0.1 µM) | relative viability (Crizotinib + Foretinib; first compound 0.3162 µM) | relative viability (Crizotinib + Foretinib; first compound 1 µM) | relative viability (Crizotinib + Phenformin; first compound 0.01 µM) | relative viability (Crizotinib + Phenformin; first compound 0.03162 µM) | relative viability (Crizotinib + Phenformin; first compound 0.1 µM) | relative viability (Crizotinib + Phenformin; first compound 0.3162 µM) | relative viability (Crizotinib + Phenformin; first compound 1 µM) | relative viability (Crizotinib + Decitabine; first compound 0.01 µM) | relative viability (Crizotinib + Decitabine; first compound 0.03162 µM) | relative viability (Crizotinib + Decitabine; first compound 0.1 µM) | relative viability (Crizotinib + Decitabine; first compound 0.3162 µM) | relative viability (Crizotinib + Decitabine; first compound 1 µM) | relative viability (Crizotinib + Olaparib; first compound 0.01 µM) | relative viability (Crizotinib + Olaparib; first compound 0.03162 µM) | relative viability (Crizotinib + Olaparib; first compound 0.1 µM) | relative viability (Crizotinib + Olaparib; first compound 0.3162 µM) | relative viability (Crizotinib + Olaparib; first compound 1 µM)
1 | NCI-H2126 | 1.03 | 1.18 | 1.12 | 1.1 | 1.18 | 0.464 | 0.591 | 0.511 | 0.528 | 0.507 | 0.51 | 0.568 | 0.579 | 0.565 | 0.591 | 0.81 | 0.936 | 0.952 | 0.897 | 0.907
2 | NCI-H2170 | 0.965 | 0.991 | 0.999 | 1.02 | 1.01 | 0.394 | 0.443 | 0.419 | 0.428 | 0.423 | 0.407 | 0.475 | 0.467 | 0.402 | 0.471 | 0.558 | 0.625 | 0.642 | 0.558 | 0.62
3 | NCI-H2342 | 1.01 | 1.04 | 1.06 | 0.978 | 1.14 | 0.512 | 0.567 | 0.54 | 0.549 | 0.544 | 0.761 | 0.799 | 0.781 | 0.723 |  | 0.427 | 0.406 | 0.429 | 0.418 | 0.435
4 | NCI-H2347 | 0.689 | 0.918 | 1.03 | 0.656 | 1.06 | 0.24 | 0.329 | 0.473 | 0.488 | 0.333 | 0.69 | 0.616 | 0.674 | 0.608 | 0.661 | 0.584 | 0.57 | 0.568 | 0.554 | 0.578
5 | NCI-H2405 | 1.02 | 1.06 | 1.05 | 1.09 | 1.06 | 0.364 | 0.417 | 0.378 | 0.412 | 0.398 | 0.717 | 0.698 | 0.717 | 0.727 | 0.734 | 0.794 | 0.837 | 0.906 | 0.751 | 0.901
6 | NCI-H3122 | 0.94 | 0.925 | 0.978 | 0.873 | 0.924 | 0.374 | 0.38 | 0.4 | 0.333 | 0.236 | 0.316 | 0.408 | 0.456 | 0.409 | 0.453 | 0.597 | 0.57 | 0.61 | 0.637 | 0.631
7 | PC-3 [JPC-3] | 0.969 | 1.05 | 1.01 | 0.992 | 0.986 | 0.469 | 0.506 | 0.482 | 0.452 | 0.482 | 0.794 | 0.809 | 0.839 |  | 0.865 | 1.09 | 1.22 | 1.13 |  | 1.12
8 | PC-14 | 0.894 | 1.01 |  | 0.926 | 0.999 | 0.562 | 0.675 | 0.642 | 0.526 | 0.522 | 0.182 | 0.248 | 0.225 | 0.244 | 0.248 | 0.274 | 0.28 | 0.307 | 0.401 | 0.289
